Holding throughout (experiment): relative viability (nuclei count vs DMSO), 5 days (fraction); higher = more cells survive
Compound in test [1]: C[C@@]1(C(=O)Nc2ccc(F)nc2)CCCN1c1nc(Nc2cc(C3CC3)n[nH]2)c2cccn2n1 + N=C(N)NC(=N)NCCc1ccccc1 [Phenformin] (partner 250 µM)
In outline:
(§1)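 Relative viability is defined as nuclei in treated wells over nuclei in vehicle wells. Duplicate plates were run and medians reported. Lung cancer cell lines in 1536-well plates were dosed by pin tool one day after seeding, with one drug or with a fixed anchor-drug dose plus five library-drug doses (not always all listed) in √10 steps, and nuclei were counted after 5 days.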

Compound in the test “Motesanib + Bortezomib”: CC1(C)CNc2cc(NC(=O)c3cccnc3NCc3ccncc3)ccc21 [Motesanib] + CC(C)C[C@H](NC(=O)[C@H](Cc1ccccc1)NC(=O)c1cnccn1)B(O)O [Bortezomib] (partner 0.002 µM)
In outline: as §1

Compound in the test “Motesanib + Navitoclax”: CC1(C)CNc2cc(NC(=O)c3cccnc3NCc3ccncc3)ccc21 [Motesanib] + CC1(C)CCC(c2ccc(Cl)cc2)=C(CN2CCN(c3ccc(C(=O)NS(=O)(=O)c4ccc(N[C@H](CCN5CCOCC5)CSc5ccccc5)c(S(=O)(=O)C(F)(F)F)c4)cc3)CC2)C1 [Navitoclax] (partner 0.5 µM)
In outline:
as §1

Compound in the test “Motesanib + Pemetrexed”: CC1(C)CNc2cc(NC(=O)c3cccnc3NCc3ccncc3)ccc21 [Motesanib] + Nc1nc2[nH]cc(CCc3ccc(C(=O)N[C@@H](CCC(=O)O)C(=O)O)cc3)c2c(=O)[nH]1 [Pemetrexed] (partner 0.2 µM)
In outline:
as §1

Turning to RERF-LC-KJ, the relative viability in test [1] (first compound 0.04 µM) came out at 0.315; in test [1] (first compound 0.1265 µM), 0.348; in test [1] (first compound 0.4 µM) it was 0.322; in test [1] (first compound 1.265 µM), 0.273; in the test with Motesanib + Bortezomib (first compound 0.01 µM), 1.01; with Motesanib + Bortezomib (first compound 0.03162 µM), 1.13. The relative viability with Motesanib + Bortezomib (first compound 0.1 µM) is 1.09; in the test with Motesanib + Bortezomib (first compound 0.3162 µM), 1.09; with Motesanib + Bortezomib (first compound 1 µM), 1.03; with Motesanib + Navitoclax (first compound 0.01 µM), 0.705; with Motesanib + Navitoclax (first compound 0.03162 µM), 1.01; in the test with Motesanib + Navitoclax (first compound 0.1 µM), 1.29. Moreover, the relative viability came out at 0.811 with Motesanib + Navitoclax (first compound 0.3162 µM); 0.877 with Motesanib + Navitoclax (first compound 1 µM); 0.471 with Motesanib + Pemetrexed (first compound 0.01 µM); 0.502 with Motesanib + Pemetrexed (first compound 0.03162 µM); 0.495 in the test with Motesanib + Pemetrexed (first compound 0.1 µM); 0.472 in the test with Motesanib + Pemetrexed (first compound 0.3162 µM). Further, the relative viability in the test with Motesanib + Pemetrexed (first compound 1 µM) was determined as 0.527.

For the cell line SK-LU-1, the relative viability in test [1] (first compound 0.04 µM) worked out at 0.476; in test [1] (first compound 0.1265 µM), 0.396; in test [1] (first compound 0.4 µM), 0.361; in test [1] (first compound 1.265 µM), 0.409; with Motesanib + Bortezomib (first compound 0.01 µM), 1.11; with Motesanib + Bortezomib (first compound 0.03162 µM), 1.48. Further, the relative viability with Motesanib + Bortezomib (first compound 0.1 µM) was found to be 1.3; with Motesanib + Bortezomib (first compound 0.3162 µM), 1.38; with Motesanib + Bortezomib (first compound 1 µM), 1.58; with Motesanib + Navitoclax (first compound 0.01 µM) it was 0.611; with Motesanib + Navitoclax (first compound 0.03162 µM), 0.695; with Motesanib + Navitoclax (first compound 0.1 µM), 0.925. Moreover, the relative viability worked out at 0.919 in the test with Motesanib + Navitoclax (first compound 0.3162 µM); 1.13 with Motesanib + Navitoclax (first compound 1 µM); 0.961 with Motesanib + Pemetrexed (first compound 0.01 µM); 0.806 with Motesanib + Pemetrexed (first compound 0.03162 µM); 0.547 with Motesanib + Pemetrexed (first compound 0.1 µM); 0.417 in the test with Motesanib + Pemetrexed (first compound 0.3162 µM). For the same cell line, the relative viability in the test with Motesanib + Pemetrexed (first compound 1 µM) was 0.347.

On to SW 1573, for which the relative viability in test [1] (first compound 0.04 µM) was 0.232; in test [1] (first compound 0.1265 µM) it was 0.218; in test [1] (first compound 0.4 µM) it was 0.228; in test [1] (first compound 1.265 µM) it was 0.214; with Motesanib + Bortezomib (first compound 0.01 µM) it was 1.17; with Motesanib + Bortezomib (first compound 0.03162 µM), 1.02. Besides, the relative viability in the test with Motesanib + Bortezomib (first compound 0.1 µM) amounted to 1.09; with Motesanib + Bortezomib (first compound 0.3162 µM) it was 1.03; in the test with Motesanib + Bortezomib (first compound 1 µM), 0.928; with Motesanib + Navitoclax (first compound 0.01 µM) it was 0.902; with Motesanib + Navitoclax (first compound 0.03162 µM), 0.994; with Motesanib + Navitoclax (first compound 0.1 µM), 0.824. Moreover, the relative viability in the test with Motesanib + Navitoclax (first compound 0.3162 µM) was determined as 1.1; with Motesanib + Navitoclax (first compound 1 µM), 1.06; with Motesanib + Pemetrexed (first compound 0.01 µM) it was 0.764; with Motesanib + Pemetrexed (first compound 0.03162 µM), 0.833; with Motesanib + Pemetrexed (first compound 0.1 µM), 0.864; with Motesanib + Pemetrexed (first compound 0.3162 µM) it was 0.882. Moreover, the relative viability with Motesanib + Pemetrexed (first compound 1 µM) was 0.854.

The values are drawn from the supplement of paper PMC10307832.
